Assay results published in patent US20240246934A1, “QUINAZOLINE-BASED COMPOUND, COMPOSITION, AND APPLICATION OF QUINAZOLINE-BASED COMPOUND” (BEIJING SCITECH-MQ PHARMACEUTICALS LIMITED, priority 2021, published 2024).
Read-outs that look alike come from different tables or passages of the source.

Experiments:
[1] = Brain tissue and whole blood concentration in SD rats after oral administration; format: in vivo; conditions: rat, PO 10 mg/kg, 2 h after administration
Description: In this assay, the pharmacokinetic characteristics of the compounds of the present application were assayed after administration of some of the compounds of the present application to SD rats by single oral administration and intravenous injection.
2. […] The mixture was stirred, vortexed and/or sonicated. Once a solution was obtained, the vehicle was gradually added to a final volume to reach the target concentration. The solution was vortexed, and sonicated to obtain a homogeneous solution.
Meanwhile, the IV group was not fasted and the PO group was fasted overnight (>12 hrs) and given food 2 hrs after drug administration. All animals had free access to water. The dosing regimen and pharmacokinetic sampling regimen are given in Table 6 and Table 7 below, respectively.
Rats were administered according to the above regimen, and blood and brain tissue samples were collected and processed at predetermined time points (collection and processing were performed according to conventional methods in the art).
The supernatant was diluted 2-fold with ultra-pure water, and the samples were analyzed by LC/MS.
Brain tissues were weighed and homogenized by adding 4-fold homogenizing solution (acetonitrile/water=1/1 v/v). […] The supernatant was diluted 2-fold with ultra-pure water, and the samples were analyzed by LC/MS.

EGFR^WT kinase = EGFR^WT kinase (Homo sapiens, UniProt P00533); test: EGFR^WT kinase assay (ULight/PT66 TR-FRET); format: biochemical
Chain of EGFR^WT kinase (P00533 25-1210): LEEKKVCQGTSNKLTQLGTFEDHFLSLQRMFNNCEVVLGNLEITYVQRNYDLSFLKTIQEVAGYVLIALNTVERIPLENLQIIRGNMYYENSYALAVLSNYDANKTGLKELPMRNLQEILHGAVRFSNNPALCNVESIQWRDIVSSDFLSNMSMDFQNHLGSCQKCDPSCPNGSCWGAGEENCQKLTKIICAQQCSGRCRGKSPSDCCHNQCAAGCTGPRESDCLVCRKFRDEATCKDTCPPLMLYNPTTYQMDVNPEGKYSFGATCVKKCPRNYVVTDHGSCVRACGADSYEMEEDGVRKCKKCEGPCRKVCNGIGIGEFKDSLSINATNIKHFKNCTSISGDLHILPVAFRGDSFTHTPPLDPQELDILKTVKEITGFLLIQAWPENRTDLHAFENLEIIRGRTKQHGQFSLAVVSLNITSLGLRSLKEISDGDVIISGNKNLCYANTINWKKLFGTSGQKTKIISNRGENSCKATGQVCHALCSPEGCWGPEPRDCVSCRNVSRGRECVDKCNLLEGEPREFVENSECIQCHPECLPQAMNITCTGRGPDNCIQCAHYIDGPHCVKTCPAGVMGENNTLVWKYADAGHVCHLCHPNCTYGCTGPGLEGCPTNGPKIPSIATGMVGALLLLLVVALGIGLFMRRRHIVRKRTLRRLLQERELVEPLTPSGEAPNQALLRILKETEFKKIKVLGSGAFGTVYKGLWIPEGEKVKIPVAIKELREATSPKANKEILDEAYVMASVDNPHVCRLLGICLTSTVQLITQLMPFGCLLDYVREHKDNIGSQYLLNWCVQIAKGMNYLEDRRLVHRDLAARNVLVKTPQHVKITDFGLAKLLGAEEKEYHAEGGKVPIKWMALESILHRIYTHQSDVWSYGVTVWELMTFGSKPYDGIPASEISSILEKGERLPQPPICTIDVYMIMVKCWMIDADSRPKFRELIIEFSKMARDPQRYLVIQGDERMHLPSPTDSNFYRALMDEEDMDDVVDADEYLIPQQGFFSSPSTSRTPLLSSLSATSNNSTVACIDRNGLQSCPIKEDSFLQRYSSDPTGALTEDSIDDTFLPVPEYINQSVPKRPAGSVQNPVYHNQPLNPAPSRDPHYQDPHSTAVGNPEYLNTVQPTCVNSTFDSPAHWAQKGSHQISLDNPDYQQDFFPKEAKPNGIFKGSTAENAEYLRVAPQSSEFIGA
Outline: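 Enzyme preincubated 5 min with compound (11-point 3-fold series, duplicate), then ULight-JAK-1 (Tyr1023) peptide and ATP added at 4× stocks of 400 nM and 600 μM; 120 min reaction at room temperature. PT66 antibody TR-FRET read after 60 min; IC50 fitted from inhibition rates.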

[2] = Pharmacokinetics in SD rats, single intravenous injection and oral administration; format: in vivo, SD rat; conditions: for AUC(0-inf) / AUC(0-t) / Vd / half-life / bioavailability / Cmax / Tmax: SD, rat, whole blood; for bioavailability: PO 10 mg/kg vs IV 3 mg/kg, read-out: F % (bioavailability)
Outline: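 SD rats received a single IV or oral dose of a solution formulation; the oral group was fasted overnight (>12 hrs) and fed 2 hrs post-dose, the IV group not fasted. Blood and brain were sampled at set times and analysed by LC/MS; CL, Vd, T1/2, Cmax, Tmax, AUC, MRT and F % come from plasma concentration-time data.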

[3] = NA: Exposure was too low to be counted
[4] = PO 10 mg/kg, NA: Exposure was too low to be counted

Row | concentration at 2 h ([1]; whole blood, read-out: Blood drug concentration) [ng/mL] | Kp at 2 h ([1]; brain / whole blood, read-out: Brain tissue/blood ratio) | concentration at 2 h ([1]; brain, NA: Exposure was too low to be counted, read-out: Brain tissue concentration) [ng/g] | IC50 (EGFR^WT kinase) [nM] | Cl_obs ([2]; IV 3 mg/kg) [mL/min/kg] | AUC(0-inf) ([2]; IV 3 mg/kg) [ng·h/mL] | AUC(0-t) ([2]; IV 3 mg/kg) [ng·h/mL] | Vd ([2]; IV 3 mg/kg) [L/kg] | half-life ([2]; IV 3 mg/kg) [h] | bioavailability [2, 3] [%] | AUC(0-inf) [2, 4] [ng·h/mL] | AUC(0-t) [2, 4] [ng·h/mL] | Cmax [2, 4] [ng/mL] | Tmax [2, 4] [h] | half-life [2, 4] [h] | SMILES
1 | 121 | 0.36 | 43.5 | < 10 | 54.0 ± 7.4 | 938 ± 134 | 914 ± 129 | 22.7 ± 2.4 | 4.86 ± 0.23 | 36.3 ± 3.4 | 1130 ± 106 | 1100 ± 107 | 95.3 ± 16.5 | 3.33 ± 3.21 | 4.63 ± 0.26 | CCN1CCC[C@@H]1/C=C/C(=O)Nc1ccc2ncnc(Nc3ccc(OCc4ccccn4)c(Cl)c3)c2c1OC [Example 29, (R,E)-N-(4-((3-chloro-4-(pyridin-2-ylmethoxy)phenyl)amino)-5-methoxyquinazolin-6-yl)-3-(1-ethylpyrrolidin-2-yl)acrylamide]
2 |  |  |  | < 10 | 53.0 ± 6.7 | 955 ± 130 | 949 ± 128 | 18 ± 2.3 | 3.94 ± 0.18 | 34.9 ± 12.6 | 1110 ± 403 | 1100 ± 406 | 80.3 ± 30.5 | 5 ± 3.46 | 4.13 ± 0.57 | COCCCOc1c(NC(=O)/C=C/[C@H]2CCCN2C)ccc2ncnc(Nc3ccc(OCc4ccccn4)c(Cl)c3)c12 [Example 9, (R,E)-N-(4-((3-chloro-4-(pyridin-2-ylmethoxy)phenyl)amino)-5-(3-methoxypropoxy)quinazolin-6-yl)-3-(1-methylpyrrolidin-2-yl)acrylamide]
3 |  |  |  | < 10 | 52.1 ± 9.3 | 979 ± 161 | 968 ± 156 | 20.2 ± 2.6 | 4.5 ± 0.21 | 27.6 ± 6.8 | 902 ± 223 | 888 ± 221 | 65.7 ± 19.9 | 5.33 ± 2.89 | 3.69 ± 0.31 | COc1c(NC(=O)/C=C/[C@H]2CCCN2C)ccc2ncnc(Nc3ccc(OCc4ccccn4)c(Cl)c3)c12 [Example 4, (R,E)-N-(4-((3-chloro-4-(pyridin-2-ylmethoxy)phenyl)amino)-5-methoxyquinazolin-6-yl)-3-(1-methylpyrrolidin-2-yl)acrylamide]
